In publication PMC8148468, “Shikimic acid protects skin cells from UV-induced senescence through activation of the NAD+-dependent deacetylase SIRT1” (Aging (Albany NY), 2021):

How the values were obtained:
Type in all cases: cell-based, human
p16^INK4a = assay: p16INK4a mRNA levels (qPCR); settings: UVB-irradiated HDF, SA treatment
Procedure: (§1) Figure 4 (A) SRB and Trypan blue cell viability assays performed in cells treated with or without Shikimic acid (5, 10, 25 and 50 mM) for 24h. (B) Apoptosis detection using the Annexin V-FITC/PI double staining followed by flow cytometry in non-irradiated and non-treated cells, irradiated and non-treated cells and irradiated cells treated with Shikimic acid (10, 25 and 50 mM). (C) Representation and statistical analysis of the percentage of apoptotic cells in each of the conditions analyzed. (D) Cell cycle analysis using PI staining followed by flow cytometry. (E) Relative p16^INK4a mRNA levels monitored by qPCR in the indicated conditions. Student T-test, *p<0.05. […]
RNA was extracted from cell pellets using the Total RNA Purification Kit (Norgen, Canada), according to the manufacturer’s protocol. Extracted RNA was quantified using a NanoDrop® ND-1000 UV-Vis Spectrophotometer (Thermo Fisher Scientific, USA) and 300 ng of RNA were retrotranscribed to cDNA using the PrimeScriptTM RT reagent kit (Takara Bio Inc., Japan). cDNA was diluted 1/10 in ultrapure water and qPCR mix was prepared by adding cDNA (12 ng), SYBR green supermix (Bio Rad, USA), forward and reverse primers (0.2μM). […] The results were analyzed with Bio-Rad CFX Manager software. […]

SIRT1 = SIRT1 mRNA and protein levels in HDF; settings: Shikimic acid 5, 10, 25, 50 mM, 24h
Procedure: RNA was extracted from cell pellets using the Total RNA Purification Kit (Norgen, Canada), according to the manufacturer’s protocol. Extracted RNA was quantified using a NanoDrop® ND-1000 UV-Vis Spectrophotometer (Thermo Fisher Scientific, USA) and 300 ng of RNA were retrotranscribed to cDNA using the PrimeScriptTM RT reagent kit (Takara Bio Inc., Japan). cDNA was diluted 1/10 in ultrapure water and qPCR mix was prepared by adding cDNA (12 ng), SYBR green supermix (Bio Rad, USA), forward and reverse primers (0.2μM). The primers and their respective sequences are listed in Supplementary Table 1. qPCR protocol included one step at 95° C for 30 s, 40 cycles at 95° C for 10s, and 60° C for 1min. The results were analyzed with Bio-Rad CFX Manager software. BACT was used as a housekeeping gene to normalize gene expression.
(§2) Protein levels were analyzed as previously described. Cells were directly lysed in 1x Laemmli Buffer (Bio-Rad, USA), incubated at 95° C and centrifuged. Supernatant was subjected to SDS-polyacrylamide gel electrophoresis, and successive steps were performed as described. The list of antibodies used is included in Supplementary Table 2.
Student T-test, *p<0.05, **p<0.01, ***p<0.001.
(1 picture or pasted object on this page, not shown here)

[1] = test system: H4K16ac (the target of SIRT1 and SIRT2); assay: Sirtuin activity assay in HDF: H4K16ac levels (Western blot); settings: HDF treated 24h;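 further: screen looked for decreased acetylation as a sign of sirtuin activation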
Procedure: Figure 1 (A) Schematic representation of the compound testing for sirtuin activity evaluation in HDF. Cells were treated with or without the compounds for 24h and harvested for analysis. […] (C) Western Blot analysis and (D) quantification of H4K16ac and H3K9ac levels in cells treated with Resveratrol or Shikimic acid at the indicated concentrations. H4K16 and H3K9 levels were normalized to H4 and H3 levels respectively. Student T-test, *p<0.05, **p<0.01, ***p<0.001.
HDFs were plated in 100x20 mm2 cell culture plates and after 24h, fresh cell culture medium containing the compounds was added. After 24h, cells were detached with cell scrapers, harvested, and processed for qPCR or western blot.
as §2

UVB-irradiated HDF cells = assay: Apoptosis detection, Annexin V-FITC/PI flow cytometry; settings: UVB-irradiated cells exposed to SA 10, 25, 50 mM
Procedure: as §1, with “*p<0.05. (F) Immunofluorescence of γH2AX in non-irradiated and non-treated cells, irradiated and non-treated cells and irradiated cells treated with Shikimic acid (10, 25 and 50 mM).” for “*p<0.05.”
Fluorescence-activated cell sorting (FACS) analyses of the cell cycle and apoptosis were carried out using, respectively, a Propidium Iodide Flow Cytometry Kit (Abcam, UK), and an Annexin V-FITC Apoptosis Staining/Detection Kit (Abcam, UK), following the manufacturer’s instructions. […]

γH2AX = γH2AX immunofluorescence assay; settings: UVB irradiation, SA 10, 25, 50 mM
Procedure: as §1, with “*p<0.05. (F) Immunofluorescence of γH2AX in non-irradiated and non-treated cells, irradiated and non-treated cells and irradiated cells treated with Shikimic acid (10, 25 and 50 mM).” for “*p<0.05.”
The staining and detection of γH2AX foci by immunofluorescence was performed as previously described. Slides were analyzed by confocal microscopy using a Confocal Leica SP5 microscope (Leica Microsystems) with a 63x objective.

HDF cells = assay: Cell cycle analysis, PI staining flow cytometry
Procedure: Figure 4 (A) SRB and Trypan blue cell viability assays performed in cells treated with or without Shikimic acid (5, 10, 25 and 50 mM) for 24h. (B) Apoptosis detection using the Annexin V-FITC/PI double staining followed by flow cytometry in non-irradiated and non-treated cells, irradiated and non-treated cells and irradiated cells treated with Shikimic acid (10, 25 and 50 mM). (C) Representation and statistical analysis of the percentage of apoptotic cells in each of the conditions analyzed. (D) Cell cycle analysis using PI staining followed by flow cytometry. (E) Relative p16^INK4a mRNA levels monitored by qPCR in the indicated conditions. Student T-test, *p<0.05. (F) Immunofluorescence of γH2AX in non-irradiated and non-treated cells, irradiated and non-treated cells and irradiated cells treated with Shikimic acid (10, 25 and 50 mM). (G) Principal component analysis (PCA) on Savitzky–Golay second derivatized spectra in the fingerprint region (1800–950 cm−1) for non-irradiated cells (No UVB), irradiated non-treated cells (UVB), irradiated cells treated with Shikimic acid 25 mM (UVB SA) and irradiated cells treated with Shikimic acid 25 mM plus EX-527 1 μM (UVB SA+EX-527). Student T-test, *p<0.05, **p<0.01, ***p<0.001. (H) Beta-sheet to alpha-helix ratio obtained by curve-fitting analysis of the amide I band (1700-1600 cm-1).
Fluorescence-activated cell sorting (FACS) analyses of the cell cycle and apoptosis were carried out using, respectively, a Propidium Iodide Flow Cytometry Kit (Abcam, UK), and an Annexin V-FITC Apoptosis Staining/Detection Kit (Abcam, UK), following the manufacturer’s instructions.
Senescence induction by UVB irradiation For the non-irradiation control conditions, HDF were plated at a density of 6×10^4 cells/plate in 6-well
HDF were plated at a density of 6×10^4 cells/plate in 6- plates. After 24h, culture medium was removed and well plates. After 24h, culture medium was removed replaced by fresh cell culture medium containing the and replaced with fresh cell culture medium containing compounds at different concentrations. […]

[2] = test system: HDF cells (misfolded proteins); assay: FTIRM analysis, beta-sheet to alpha-helix ratio; settings: UVB-irradiated cells, SA 25 mM -/+ EX-527 1 μM
Procedure: as §1, with “*p<0.05. (F) Immunofluorescence of γH2AX in non-irradiated and non-treated cells, irradiated and non-treated cells and irradiated cells treated with Shikimic acid (10, 25 and 50 mM).” for “*p<0.05.”
FTIRM measurements were performed at the MIRAS beamline of ALBA Synchrotron using the internal (Globar®) source. […] The structure content of the amide I peak (1710-1598 cm−1) was determined by band deconvolution using Gaussian band fitting profiles (Origin 7.0 software). The position and number of peaks, which were assigned to specific types of secondary structures, were determined using the second derivative of the spectra.

O=C(O)C1=C[C@@H](O)[C@@H](O)[C@H](O)C1 [Shikimic acid]
p16INK4a mRNA levels (p16^INK4a): downregulation of the cell cycle regulator p16
SIRT1 gene expression and protein levels (SIRT1): did not observe any significant correlation with gene expression and protein levels
effect on H4K16ac levels [1]: induced a similar effect on both targets
early apoptosis (annexin V, text) (UVB-irradiated HDF cells): very mild and mostly insignificant levels of early apoptosis
accumulation of DNA damage (γH2AX) (γH2AX): did not alter the accumulation of DNA damage
frequency of polyploidies (HDF cells; UVB irradiation): did not alter the accumulation of DNA damage or the frequency of polyploidies
cells in S-phase (HDF cells; UVB-irradiated HDF): progressive increase in the number of cells in S-phase
cell cycle (HDF cells; absence of UVB irradiation): did not alter the cell cycle
β-sheet/α-helix ratio (misfolded proteins) [2]: inhibited these levels well below the ratio observed in control cells
